Data on five compounds can be found in US9267165B2, “Assays and kits for detecting protein binding” (DiscoveRx Corporation, priority 2002, dated 2016).

Like-named read-outs stand apart in the source and are kept apart here.

Assay [1] concerns the target JNK2 (Homo sapiens, UniProt P45984). Conditions: IC50, Ki or Kd from the literature; cited from earlier work.
The target in assay [2] is EGFR (Homo sapiens, UniProt P00533). Conditions: IC50, Ki or Kd from the literature; cited from earlier work.
Sequence of EGFR (P00533 25-1210, species assumed): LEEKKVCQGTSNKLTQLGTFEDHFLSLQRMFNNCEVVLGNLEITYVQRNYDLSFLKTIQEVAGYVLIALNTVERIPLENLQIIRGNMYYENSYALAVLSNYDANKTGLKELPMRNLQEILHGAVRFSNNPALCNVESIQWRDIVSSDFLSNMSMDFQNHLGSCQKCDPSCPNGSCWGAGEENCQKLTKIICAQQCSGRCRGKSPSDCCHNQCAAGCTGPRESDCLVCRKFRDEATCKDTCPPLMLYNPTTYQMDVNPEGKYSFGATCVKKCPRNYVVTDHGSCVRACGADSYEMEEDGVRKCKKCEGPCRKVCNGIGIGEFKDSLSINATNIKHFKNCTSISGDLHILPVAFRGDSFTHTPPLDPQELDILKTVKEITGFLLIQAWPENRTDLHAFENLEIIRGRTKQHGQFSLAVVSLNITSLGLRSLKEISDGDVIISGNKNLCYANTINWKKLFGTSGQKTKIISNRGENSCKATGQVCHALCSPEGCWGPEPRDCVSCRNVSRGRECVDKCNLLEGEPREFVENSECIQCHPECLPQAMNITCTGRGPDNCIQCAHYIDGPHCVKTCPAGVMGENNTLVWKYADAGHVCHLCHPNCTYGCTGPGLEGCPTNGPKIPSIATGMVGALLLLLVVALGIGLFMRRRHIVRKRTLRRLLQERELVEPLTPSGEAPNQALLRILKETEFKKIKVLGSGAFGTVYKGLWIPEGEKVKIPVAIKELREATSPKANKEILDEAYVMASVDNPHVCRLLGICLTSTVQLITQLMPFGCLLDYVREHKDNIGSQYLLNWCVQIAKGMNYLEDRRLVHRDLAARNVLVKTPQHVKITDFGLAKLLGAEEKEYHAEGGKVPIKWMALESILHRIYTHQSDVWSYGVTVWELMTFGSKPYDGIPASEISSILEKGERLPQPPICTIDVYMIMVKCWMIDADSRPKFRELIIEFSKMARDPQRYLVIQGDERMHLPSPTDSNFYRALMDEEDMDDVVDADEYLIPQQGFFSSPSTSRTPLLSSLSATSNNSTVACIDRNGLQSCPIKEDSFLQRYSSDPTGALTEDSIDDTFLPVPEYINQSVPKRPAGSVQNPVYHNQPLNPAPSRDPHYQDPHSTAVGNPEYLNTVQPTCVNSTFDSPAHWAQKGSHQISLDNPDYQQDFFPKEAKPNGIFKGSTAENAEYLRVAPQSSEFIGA
In assay [3] the target is ERBB2 (Homo sapiens, UniProt P04626). The following applies: IC50, Ki or Kd from the literature; cited from earlier work.
Sequence of ERBB2 (P04626 23-1255, species assumed): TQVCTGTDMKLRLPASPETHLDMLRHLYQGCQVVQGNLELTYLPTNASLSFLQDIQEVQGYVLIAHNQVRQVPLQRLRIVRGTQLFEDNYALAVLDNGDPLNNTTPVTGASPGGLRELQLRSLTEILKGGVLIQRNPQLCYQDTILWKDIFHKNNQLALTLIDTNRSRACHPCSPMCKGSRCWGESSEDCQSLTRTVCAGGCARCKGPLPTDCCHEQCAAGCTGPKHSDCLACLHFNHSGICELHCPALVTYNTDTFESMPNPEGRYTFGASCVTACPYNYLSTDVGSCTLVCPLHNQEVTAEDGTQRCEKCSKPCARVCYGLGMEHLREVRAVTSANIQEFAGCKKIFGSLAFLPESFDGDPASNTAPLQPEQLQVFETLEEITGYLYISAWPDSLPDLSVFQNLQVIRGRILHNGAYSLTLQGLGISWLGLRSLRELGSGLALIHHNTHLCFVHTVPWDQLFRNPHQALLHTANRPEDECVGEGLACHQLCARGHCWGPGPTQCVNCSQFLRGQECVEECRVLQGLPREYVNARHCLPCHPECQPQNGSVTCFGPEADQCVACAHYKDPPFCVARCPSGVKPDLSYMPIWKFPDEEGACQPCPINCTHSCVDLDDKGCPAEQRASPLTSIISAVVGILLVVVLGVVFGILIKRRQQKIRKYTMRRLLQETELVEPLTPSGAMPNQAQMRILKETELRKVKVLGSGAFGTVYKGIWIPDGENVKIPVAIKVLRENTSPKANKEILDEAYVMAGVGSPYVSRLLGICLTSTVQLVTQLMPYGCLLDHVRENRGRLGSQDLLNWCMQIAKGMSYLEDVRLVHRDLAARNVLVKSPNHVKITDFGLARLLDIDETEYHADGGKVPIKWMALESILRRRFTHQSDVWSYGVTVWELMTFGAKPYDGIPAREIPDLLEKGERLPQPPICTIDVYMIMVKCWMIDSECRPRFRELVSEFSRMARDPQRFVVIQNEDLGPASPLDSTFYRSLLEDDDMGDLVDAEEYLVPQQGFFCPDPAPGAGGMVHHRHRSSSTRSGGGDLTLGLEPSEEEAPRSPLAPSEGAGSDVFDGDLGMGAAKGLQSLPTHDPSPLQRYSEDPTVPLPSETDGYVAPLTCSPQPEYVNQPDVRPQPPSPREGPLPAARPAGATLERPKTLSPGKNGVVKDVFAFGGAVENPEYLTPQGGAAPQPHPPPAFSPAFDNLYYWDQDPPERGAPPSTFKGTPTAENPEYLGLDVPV
Assay [4] addresses T1, p38α (Homo sapiens, UniProt Q16539). The following applies: IC50, Ki or Kd from the literature; cited from earlier work.
The target of assay [5] is T1, p38α. In words: Competition binding assay, phage-displayed kinase vs immobilized ATP-site ligand (SB202190). The arrangement: the coding region for p38α was cloned into the phage genome in-frame with the gene encoding the major T7 capsid protein; made in house; host or cells: T7 phage grown in E. coli (BLT 5615 in the illustrative protocol); lysate used directly.

T1 sequence (Q16539 whole entry): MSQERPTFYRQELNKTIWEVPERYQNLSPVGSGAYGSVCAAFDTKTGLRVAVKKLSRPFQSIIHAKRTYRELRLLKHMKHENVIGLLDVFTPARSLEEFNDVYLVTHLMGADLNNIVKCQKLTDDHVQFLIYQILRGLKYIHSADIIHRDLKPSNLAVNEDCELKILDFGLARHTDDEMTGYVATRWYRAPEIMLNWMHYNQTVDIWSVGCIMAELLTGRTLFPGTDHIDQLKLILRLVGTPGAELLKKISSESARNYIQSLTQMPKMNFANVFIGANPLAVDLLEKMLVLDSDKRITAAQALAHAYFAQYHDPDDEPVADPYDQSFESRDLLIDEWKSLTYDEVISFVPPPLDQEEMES
Sequence of JNK2 (P45984 whole entry, species assumed): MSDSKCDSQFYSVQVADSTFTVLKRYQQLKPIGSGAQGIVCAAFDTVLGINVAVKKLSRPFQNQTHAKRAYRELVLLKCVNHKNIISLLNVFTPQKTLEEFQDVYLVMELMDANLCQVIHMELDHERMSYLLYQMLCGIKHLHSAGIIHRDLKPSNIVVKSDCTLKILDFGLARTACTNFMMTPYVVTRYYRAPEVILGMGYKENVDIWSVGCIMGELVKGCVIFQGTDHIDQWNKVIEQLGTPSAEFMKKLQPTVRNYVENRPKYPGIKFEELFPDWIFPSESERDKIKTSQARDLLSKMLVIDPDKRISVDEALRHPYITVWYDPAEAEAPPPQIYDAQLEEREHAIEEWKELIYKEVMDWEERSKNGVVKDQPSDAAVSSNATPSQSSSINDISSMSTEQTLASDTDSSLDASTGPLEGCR

Consider `O=C1c2ccccc2-c2n[nH]c3cccc1c23` [CC-401], for which the Published in assay [1] was 110 (Z. Han et al., J. Clin. Invest. 108, 73 (2001)) nM.
With `CS(=O)(=O)CCNCc1ccc(-c2ccc3c(Nc4ccc(OCc5cccc(F)c5)c(Cl)c4)ncnc3c2)o1` [GW-2016], the Published in assay [2] is listed as 11 (D. W. Rusnak et al., Mol. Cancer Ther. 1, 85 (2001)) nM; in assay [3], 9.2 (D. W. Rusnak et al., Mol. Cancer Ther. 1, 85 (2001)) nM.
Turning to `Oc1ccc(-c2nc(-c3ccncc3)c(-c3ccc(F)cc3)[nH]2)cc1` [SB202190], the Published in assay [4] is 37 (B. Frantz et at., Biochemistry 37, 13846 (1998)). nM. The “binding (association) kinetics” value in assay [5] (p38, known and also observed in the competition assays) is recorded as “fast”.
`CCc1nc(-c2ccc(OC)cc2)[nH]c1-c1ccncc1` [SB202474]: the “decrease of the amount of phage-displayed p38 bound to the solid support” value in assay [5] is on record as “neither SB202474 nor purvalanol A had a significant effect”.
For the compound `CC(C)[C@H](CO)Nc1nc(Nc2cccc(Cl)c2)c2ncn(C(C)C)c2n1` [purvalanol A], the “decrease of the amount of phage-displayed p38 bound to the solid support” value in assay [5] (competition with immobilized SB202190, FIG. 1B) is recorded as “neither SB202474 nor purvalanol A had a significant effect”.
